Measurements from the CheMixHub viscosity set.

Experiment: xn = mol fraction of the nth substance listed

CCCCCCCO + CCCCCCO
viscosity [mPa·s], 101.8 kPa
Conditions | x2 = 0.1128 | x2 = 0.3611 | x2 = 0.5306 | x2 = 0.6915 | x2 = 0.9117
298.15 K | 5.786 | 5.339 | 5.173 | 4.875 | 4.5
308.15 K | 4.235 | 3.946 | 3.829 | 3.625 | 3.347
318.15 K | 3.16 | 2.963 | 2.879 | 2.737 | 2.535

CS(C)=O + CCCCCCO
101 kPa
Conditions | viscosity [mPa·s]
303.15 K, x1 = 0.1678 | 2.991
303.15 K, x1 = 0.1907 | 2.831
303.15 K, x1 = 0.3273 | 2.582
303.15 K, x1 = 0.3639 | 2.288
303.15 K, x1 = 0.4458 | 2.342
303.15 K, x1 = 0.522 | 2.088
303.15 K, x1 = 0.5483 | 2.171
303.15 K, x1 = 0.64 | 2.061
303.15 K, x1 = 0.6669 | 1.898
303.15 K, x1 = 0.7228 | 1.983
303.15 K, x1 = 0.8002 | 1.739
303.15 K, x1 = 0.8098 | 1.901
303.15 K, x1 = 0.8795 | 1.827
303.15 K, x1 = 0.9231 | 1.722
303.15 K, x1 = 0.9413 | 1.754
313 K, x1 = 0.1163 | 2.459
313 K, x1 = 0.203 | 2.239
313 K, x1 = 0.4013 | 1.891
313 K, x1 = 0.4964 | 1.793
313 K, x1 = 0.5978 | 1.719
313 K, x1 = 0.6873 | 1.666
313 K, x1 = 0.7968 | 1.593
313 K, x1 = 0.9124 | 1.574

CCCCC(=O)OCC + CCCCCO
viscosity [mPa·s], 101.33 kPa
Conditions | x1 = 0.1037 | x1 = 0.1921 | x1 = 0.3001 | x1 = 0.4089 | x1 = 0.5015 | x1 = 0.6062 | x1 = 0.7081 | x1 = 0.8013 | x1 = 0.9029
293.15 K | 3.302 | 2.761 | 2.241 | 1.841 | 1.575 | 1.34 | 1.163 | 1.036 | 0.927
303.15 K | 2.379 | 2.008 | 1.651 | 1.377 | 1.195 | 1.033 | 0.912 | 0.825 | 0.749
313.15 K | 1.887 | 1.61 | 1.344 | 1.139 | 1.004 | 0.884 | 0.793 | 0.728 | 0.672

CC(C)=CC(=O)C=C(C)C + CCCCCOC(C)=O
298.15 K, 101 kPa
Conditions | viscosity [mPa·s]
x1 = 0.078 | 0.813
x1 = 0.142 | 0.834

CCCCC + CCCCCl
298 K, 101.3 kPa
Conditions | viscosity [mPa·s]
x1 = 0.1016 | 0.4004
x1 = 0.2097 | 0.372
x1 = 0.2358 | 0.3641
x1 = 0.403 | 0.3274
x1 = 0.5062 | 0.3054
x1 = 0.6042 | 0.287
x1 = 0.7007 | 0.2701
x1 = 0.7975 | 0.2558
x1 = 0.8963 | 0.2391

CC(=O)O.NCCO + CCCCO
298.15 K, 101.3 kPa
Conditions | viscosity [mPa·s]
x2 = 0.088 | 1548
x2 = 0.179 | 734.1
x2 = 0.272 | 460.3
x2 = 0.369 | 325.3
x2 = 0.476 | 190.3
x2 = 0.574 | 74.63
x2 = 0.666 | 30.51
x2 = 0.776 | 19.04
x2 = 0.881 | 14.02

CCCCC + CCCCO
298.15 K, 101 kPa
Conditions | viscosity [mPa·s]
x2 = 0.1233 | 0.258
x2 = 0.2435 | 0.319
x2 = 0.4175 | 0.481
x2 = 0.4935 | 0.609
x2 = 0.5883 | 0.809
x2 = 0.6892 | 1.042
x2 = 0.7941 | 1.44
x2 = 0.869 | 1.832

CCCCCCCCn1cc[n+](C)c1.O=[N+]([O-])[O-] + CCCCO
Conditions | viscosity [mPa·s]
293.15 K, 101 kPa, x2 = 0.168 | 378.7
